Assay results from patent US7880010B2, “Crystalline forms of a dimethylphenyl compound” (Theravance, Inc., priority 2006, dated 2011).

Assays:
Experiment in all cases: Radioligand binding assay for muscarinic receptors ([3H]-NMS displacement)
[1] = biological target: T1, hM2 muscarinic receptor (Homo sapiens, UniProt P08172); settings: M2 muscarinic receptor subtype, CHO cell membranes, [3H]-NMS 1 nM
T1 construct: expressed in transfected cells; host or cells: CHO / CHO-K1
T1 sequence (P08172 1-466): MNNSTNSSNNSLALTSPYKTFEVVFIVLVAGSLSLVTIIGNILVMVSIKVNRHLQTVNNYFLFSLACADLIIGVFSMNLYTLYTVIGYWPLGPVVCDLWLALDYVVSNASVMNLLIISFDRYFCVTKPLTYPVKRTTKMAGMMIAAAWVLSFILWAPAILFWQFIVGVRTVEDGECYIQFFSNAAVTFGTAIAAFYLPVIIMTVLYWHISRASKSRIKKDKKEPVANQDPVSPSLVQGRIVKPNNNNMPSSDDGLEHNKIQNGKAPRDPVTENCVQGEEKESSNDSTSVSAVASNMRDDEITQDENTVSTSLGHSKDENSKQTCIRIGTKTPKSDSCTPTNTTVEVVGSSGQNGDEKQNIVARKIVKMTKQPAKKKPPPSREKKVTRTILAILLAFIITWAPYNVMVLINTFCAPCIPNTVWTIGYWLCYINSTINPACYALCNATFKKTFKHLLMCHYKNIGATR
Procedure: (§1) CHO cell lines stably expressing cloned human hM1, hM2, hM3 and hM4 muscarinic receptor subtypes, respectively, were grown to near confluency in Hams F-12 media supplemented with 10% FBS and 250 μg/mL Geneticin. The cells were grown in a 5% CO2, 37° C. incubator and lifted with 2 mM EDTA in dPBS. Cells were collected by 5 minute centrifugation at 650×g, and cell pellets were either stored frozen at −80° C. or membranes were prepared immediately for use. For membrane preparation, cell pellets were resuspended in lysis buffer and homogenized with a Polytron PT-2100 tissue disrupter (Kinematica AG; 20 seconds×2 bursts). Crude membranes were centrifuged at 40,000×g for 15 minutes at 4° C. The membrane pellet was then resuspended with re-suspension buffer and homogenized again with the Polytron tissue disrupter. The protein concentration of the membrane suspension was determined by the method described in Lowry et al., 1951, Journal of Biochemistry, 193, 265. All membranes were stored frozen in aliquots at −80° C. or used immediately. Aliquots of prepared hM5 receptor membranes were purchased directly from PerkinElmer, Inc. (Wellesley, Mass.) and stored at −80° C. until use.
(§2) Radioligand binding assays for cloned muscarinic receptors were performed in 96-well microtiter plates in a total assay volume of 100 μL. CHO cell membranes stably expressing either the hM1, hM2, hM3, hM4 or hM5 muscarinic subtype were diluted in assay buffer to the following specific target protein concentrations (μg/well): 10 μg for hM1, 10-15 μg for hM2, 10-20 μg for hM3, 10-20 μg for hM4, and 10-12 μg for hM5 to get similar signals (cpm). The membranes were briefly homogenized using a Polytron tissue disrupter (10 seconds) prior to assay plate addition. Saturation binding studies for determining KD values of the radioligand were performed using L-[N-methyl-^3H]scopolamine methyl chloride ([^3H]-NMS) (TRK666, 84.0 Ci/mmol, Amersham Pharmacia Biotech, Buckinghamshire, England) at concentrations ranging from 0.001 nM to 20 nM. Displacement assays for determination of Ki values of test compounds were performed with [^3H]-NMS at 1 nM and eleven different test compound concentrations. The test compounds were initially dissolved to a concentration of 400 μM in dilution buffer and then serially diluted 5× with dilution buffer to final concentrations ranging from 10 pM to 100 μM. The addition order and volumes to the assay plates were as follows: 25 μL radioligand, 25 μL diluted test compound, and 50 μL membranes. Assay plates were incubated for 60 minutes at 37° C. Binding reactions were terminated by rapid filtration over GF/B glass fiber filter plates (PerkinElmer, Inc.) pre-treated in 1% BSA. Filter plates were rinsed three times with wash buffer (10 mM HEPES) to remove unbound radioactivity. The plates were then air-dried and 50 μL Microscint-20 liquid scintillation fluid (PerkinElmer, Inc.) were added to each well. The plates were then counted in a PerkinElmer Topcount liquid scintillation counter (PerkinElmer, Inc.). Binding data were analyzed by nonlinear regression analysis with the GraphPad Prism Software package (GraphPad Software, Inc., San Diego, Calif.) using the one-site competition model. Ki values for test compounds were calculated from observed IC50 values and the KD value of the radioligand using the Cheng-Prusoff equation (Cheng Y; Prusoff W H. (1973) Biochemical Pharmacology, 22(23):3099-108). […]

[2] = biological target: T2, hM3 muscarinic receptor (Homo sapiens, UniProt P20309); settings: M3 muscarinic receptor subtype, CHO cell membranes, [3H]-NMS 1 nM
T2 construct: expressed in transfected cells; host or cells: CHO
T2 sequence (P20309 whole entry): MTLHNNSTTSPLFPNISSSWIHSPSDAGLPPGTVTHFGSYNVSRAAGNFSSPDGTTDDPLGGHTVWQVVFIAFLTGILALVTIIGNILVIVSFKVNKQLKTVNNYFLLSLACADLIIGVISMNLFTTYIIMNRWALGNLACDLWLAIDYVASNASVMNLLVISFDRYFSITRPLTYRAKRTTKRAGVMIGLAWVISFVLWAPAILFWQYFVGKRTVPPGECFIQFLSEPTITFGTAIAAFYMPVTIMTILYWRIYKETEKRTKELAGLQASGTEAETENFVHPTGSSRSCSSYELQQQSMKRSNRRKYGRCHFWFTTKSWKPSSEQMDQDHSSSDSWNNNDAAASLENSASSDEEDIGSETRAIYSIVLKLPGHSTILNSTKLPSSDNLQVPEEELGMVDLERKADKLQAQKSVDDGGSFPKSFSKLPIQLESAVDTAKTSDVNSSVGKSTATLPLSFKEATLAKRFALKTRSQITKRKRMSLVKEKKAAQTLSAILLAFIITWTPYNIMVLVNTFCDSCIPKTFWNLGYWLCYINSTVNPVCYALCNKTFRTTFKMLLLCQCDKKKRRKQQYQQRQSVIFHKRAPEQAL
Procedure: as §1, §2

[3] = biological target: T3, hM4 muscarinic receptor (Homo sapiens, UniProt P08173); settings: M4 muscarinic receptor subtype, CHO cell membranes, [3H]-NMS 1 nM
T3 construct: expressed in transfected cells; host or cells: CHO
T3 sequence (P08173 1-479): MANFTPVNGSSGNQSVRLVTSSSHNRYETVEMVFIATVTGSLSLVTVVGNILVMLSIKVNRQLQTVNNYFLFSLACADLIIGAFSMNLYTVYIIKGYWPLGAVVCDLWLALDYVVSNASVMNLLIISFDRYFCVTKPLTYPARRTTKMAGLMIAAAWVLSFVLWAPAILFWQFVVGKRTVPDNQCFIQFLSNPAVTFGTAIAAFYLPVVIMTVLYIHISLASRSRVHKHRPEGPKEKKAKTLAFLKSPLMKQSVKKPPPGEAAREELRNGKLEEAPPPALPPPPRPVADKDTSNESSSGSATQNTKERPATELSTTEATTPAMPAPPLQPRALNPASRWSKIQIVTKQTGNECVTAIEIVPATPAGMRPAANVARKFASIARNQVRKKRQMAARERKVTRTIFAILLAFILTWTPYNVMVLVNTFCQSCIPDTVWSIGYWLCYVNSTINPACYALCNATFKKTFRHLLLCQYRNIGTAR
Procedure: as §1, §2

Ki [1]: < 10 nM
Ki [2]: < 10 nM
Ki [3]: < 10 nM
Compound: Cc1cc(NC(=O)CCN2CCC(OC(=O)Nc3ccccc3-c3ccccc3)CC2)c(C)cc1CNC[C@H](O)c1ccc(O)c(NC=O)c1 [compound of formula I, biphenyl-2-ylcarbamic acid 1-[2-(4-{[(R)-2-(3-formylamino-4-hydroxyphenyl)-2-hydroxyethylamino]methyl}-2,5-dimethylphenylcarbamoyl)ethyl]-piperidin-4-yl ester]
